Test results: patent US20140315889A1, “HYDROXAMATE DERIVATIVES FOR HDAC INHIBITOR, AND THE PHARMACEUTICAL COMPOSITION COMPRISING THEREOF” (CHONG KUN DANG PHARMACEUTICAL CORP., priority 2011, published 2014)

How the values were obtained:
[1] = biological target: T1, Human recombinant HDAC1 (Homo sapiens, UniProt Q13547); assay: HDAC enzyme activity test, HDAC1; format: biochemical; details: Table 12; read-out: Inhibition ability (IC50) HDAC1
T1 construct: purchased Enzo Life Science Co. (named for the kit; assigned to the enzyme from the BML- catalogue prefix) BML-SE456
Procedure: (§1) Then, 0.3 μg of enzyme and 10 μM of substrate per well were added, reacted at 30° C. for 60 minutes. Thereto, Fluor de Lys® Developer II (BML-KI176) was added and reacted for 30 minutes. […] From the data, the respective IC50 were calculated by GraphPad Prism 4.0 program.

[2] = biological target: T2, human recombinant HDAC6 (Homo sapiens, UniProt Q9UBN7); assay: HDAC enzyme activity test, HDAC6; format: biochemical; details: Table 12; for Selectivity for HDAC6, HD1/HD6: ratio HDAC1 IC50 / HDAC6 IC50; for IC50: read-out: Inhibition ability (IC50) HDAC6
T2 construct: purchased Calibiochem Co. (so in the source) 382180
T2 sequence (Q9UBN7 1-1215): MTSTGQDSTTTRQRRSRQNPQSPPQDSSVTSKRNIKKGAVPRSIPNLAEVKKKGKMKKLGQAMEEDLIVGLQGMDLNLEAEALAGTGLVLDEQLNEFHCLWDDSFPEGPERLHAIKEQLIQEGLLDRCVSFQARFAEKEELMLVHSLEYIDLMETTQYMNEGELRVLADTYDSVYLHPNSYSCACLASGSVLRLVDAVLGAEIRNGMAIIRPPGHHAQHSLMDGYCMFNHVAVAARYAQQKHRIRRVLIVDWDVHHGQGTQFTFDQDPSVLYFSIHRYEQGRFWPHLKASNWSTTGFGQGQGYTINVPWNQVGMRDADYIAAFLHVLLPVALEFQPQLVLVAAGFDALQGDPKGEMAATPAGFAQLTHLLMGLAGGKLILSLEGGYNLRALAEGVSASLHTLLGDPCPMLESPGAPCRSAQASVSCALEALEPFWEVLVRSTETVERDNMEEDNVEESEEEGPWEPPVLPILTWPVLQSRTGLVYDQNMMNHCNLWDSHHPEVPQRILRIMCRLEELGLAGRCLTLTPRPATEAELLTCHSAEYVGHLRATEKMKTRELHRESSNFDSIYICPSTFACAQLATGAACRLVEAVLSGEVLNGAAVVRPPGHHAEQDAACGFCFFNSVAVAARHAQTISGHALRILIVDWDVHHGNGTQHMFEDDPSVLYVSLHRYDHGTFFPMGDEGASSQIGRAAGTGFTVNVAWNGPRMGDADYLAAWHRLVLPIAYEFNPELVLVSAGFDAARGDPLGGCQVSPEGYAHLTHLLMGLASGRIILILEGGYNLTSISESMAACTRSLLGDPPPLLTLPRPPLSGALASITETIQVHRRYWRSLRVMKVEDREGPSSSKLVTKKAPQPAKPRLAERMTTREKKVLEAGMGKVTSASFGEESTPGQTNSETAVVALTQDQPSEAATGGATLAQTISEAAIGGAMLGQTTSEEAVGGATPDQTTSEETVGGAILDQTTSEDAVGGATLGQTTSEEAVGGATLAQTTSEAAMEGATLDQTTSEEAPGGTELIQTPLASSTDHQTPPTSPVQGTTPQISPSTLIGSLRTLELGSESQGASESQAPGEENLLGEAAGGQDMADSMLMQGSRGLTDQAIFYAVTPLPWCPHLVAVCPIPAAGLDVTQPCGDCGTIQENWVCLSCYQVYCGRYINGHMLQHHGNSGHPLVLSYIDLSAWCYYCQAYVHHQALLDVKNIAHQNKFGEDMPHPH
Procedure: as §1

T1 sequence (Q13547 whole entry): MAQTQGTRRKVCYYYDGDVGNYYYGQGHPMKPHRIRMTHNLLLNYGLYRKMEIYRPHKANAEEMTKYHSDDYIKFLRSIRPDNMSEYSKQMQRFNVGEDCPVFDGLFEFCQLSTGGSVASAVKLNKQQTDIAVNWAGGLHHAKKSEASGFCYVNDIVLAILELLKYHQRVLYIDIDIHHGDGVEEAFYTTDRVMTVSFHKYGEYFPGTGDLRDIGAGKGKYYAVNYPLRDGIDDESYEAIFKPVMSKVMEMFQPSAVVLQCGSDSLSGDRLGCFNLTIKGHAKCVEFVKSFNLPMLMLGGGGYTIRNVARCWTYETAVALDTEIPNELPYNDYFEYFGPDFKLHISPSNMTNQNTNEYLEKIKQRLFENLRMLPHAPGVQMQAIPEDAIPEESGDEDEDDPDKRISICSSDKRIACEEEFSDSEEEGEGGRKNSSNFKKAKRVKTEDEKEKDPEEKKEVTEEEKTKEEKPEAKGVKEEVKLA

SMILES | IC50 [1] [nM] | Selectivity for HDAC6, HD1/HD6 [2] | IC50 [2] [nM]
O=C(NO)c1ccc(Cn2c3c(c4ccccc42)C(=O)C(CN2CCN(C(=O)C4CC4)CC2)CC3)cc1 (stereo not drawn) [Compound 156, 4-((3-((4-(cyclopropancarbonyl)piperazin-1-yl)methyl)-4-oxo-1,2,3,4-tetrahydrocarbazol-9-yl)methyl)-N-hydroxybenzamide] | 6400 | 424.8 | 15.1
O=C(NO)c1ccc(Cn2c3c(c4cc(F)ccc42)C(=O)CCC3)cc1 [Compound 157, 4-((3-fluoro-5-oxo-5,6,7,8-tetrahydrocarbazol-9-yl)methyl)-N-hydroxybenzamide] | 3610 | 326.2 | 11.1
Cc1nccn1CC1CCc2c(c3cc(F)ccc3n2Cc2ccc(C(=O)NO)cc2)C1=O (stereo not drawn) [Compound 158, 4-((6-fluoro-3-((2-methyl-1H-imidazol-1-yl)methyl)-4-oxo-1,2,3,4-tetrahydrocarbazol-9-yl)methyl)-N-hydroxybenzamide] | 5140 | 602.7 | 8.52
O=C(NO)c1ccc(Cn2c3ccccc3c3c(=O)[nH]cnc32)cc1 [Compound 179, N-hydroxy-4-((4-oxo-3,4-dihydropyrimido[4,5-b]indol-9-yl)methyl)benzamide] | 154 | 43.693 | 3.52
CC(C)N1CCN(CC2CCc3c(c4cc(F)ccc4n3Cc3ccc(C(=O)NO)cc3)C2=O)CC1 (stereo not drawn) [Compound 188, 4-((6-fluoro-3-((4-isopropylpiperazin-1-yl)methyl)-4-oxo-1,2,3,4-tetrahydrocarbazol-9-yl)methyl)-N-hydroxybenzamide] | 2260 | 49.9 | 45.3
CCN1CCN(CC2CCc3c(c4cc(F)ccc4n3Cc3ccc(C(=O)NO)cc3)C2=O)CC1 (stereo not drawn) [Compound 189, 4-((3-((4-ethylpiperazin-1-yl)methyl)-6-fluoro-4-oxo-1,2,3,4-tetrahydrocarbazol-9-yl)methyl)-N-hydroxybenzamide] | 2230 | 193.5 | 11.5
CCCCN1CCN(CC2CCc3c(c4cc(F)ccc4n3Cc3ccc(C(=O)NO)cc3)C2=O)CC1 (stereo not drawn) [Compound 190, 4-((3-((4-butylpiperazin-1-yl)methyl)-6-fluoro-4-oxo-1,2,3,4-tetrahydrocarbazol-9-yl)methyl)-N-hydroxybenzamide] | 2250 | 385.1 | 5.8
CC(C)(O)CN1CCN(CC2CCc3c(c4cc(F)ccc4n3Cc3ccc(C(=O)NO)cc3)C2=O)CC1 (stereo not drawn) [Compound 191, 4-((6-fluoro-3-((4-(2-hydroxy-2-methylpropyl)piperazin-1-yl)methyl)-4-oxo-1,2,3,4-tetrahydrocarbazol-9-yl)methyl)-N-hydroxybenzamide] | 8280 | 1115.6 | 7.4
Cc1nccn1CC1C(=O)c2c(n(Cc3ccc(C(=O)NO)cc3)c3ccc(F)cc23)CC1(C)C (stereo not drawn) [Compound 192, 4-((6-fluoro-2,2-dimethyl-3-((2-methyl-1H-imidazol-1-yl)methyl)-4-oxo-1,2,3,4-tetrahydrocarbazol-9-yl)methyl)-N-hydroxybenzamide] | 4610 | 2546.4 | 1.8
O=C(CCCCCn1c2c(c3ccccc31)C(=O)C(CN1CCOCC1)CC2)NO (stereo not drawn) [Compound 193, N-hydroxy-6-(3-(morpholinomethyl)-4-oxo-1,2,3,4-tetrahydrocarbazol-9-yl)hexanamide] | 3500 | 464.3 | 7.5
Cc1nccn1CC1CCc2c(c3ccccc3n2CCCCCC(=O)NO)C1=O (stereo not drawn) [Compound 194, N-hydroxy-6-(3-((2-methyl-1H-imidazol-1-yl)methyl)-4-oxo-1,2,3,4-tetrahydrocarbazol-9-yl)hexanamide] | 3080 | 131.3 | 23.5
O=C(CCCCCn1c2c(c3ccccc31)C(=O)C(CN1CCC(F)(F)C1)CC2)NO (stereo not drawn) [Compound 204, 6-(3-((3,3-difluoropyrrolidin-1-yl)methyl)-4-oxo-1,2,3,4-tetrahydrocarbazol-9-yl)-N-hydroxyhexanamide] | 1950 | 40 | 48.7
CN1CCN(CC2CCc3c(c4ccccc4n3CCCCCC(=O)NO)C2=O)CC1 (stereo not drawn) [Compound 205, N-hydroxy-6-(3-((4-methylpiperazin-1-yl)methyl)-4-oxo-1,2,3,4-tetrahydrocarbazol-9-yl)hexanamide] | 3170 | 69 | 46
CCN1CCN(CC2CCc3c(c4ccccc4n3CCCCCC(=O)NO)C2=O)CC1 (stereo not drawn) [Compound 206, 6-(3-((4-ethylpiperazin-1-yl)methyl)-4-oxo-1,2,3,4-tetrahydrocarbazol-9-yl)-N-hydroxyhexanamide] | 1200 | 43.5 | 27.5
CC1(C)Cc2c(c3cc(F)ccc3n2Cc2ccc(C(=O)NO)cc2)C(=O)C1CN1CCOCC1 (stereo not drawn) [Compound 207, 4-((6-fluoro-2,2-dimethyl-3-(morpholinomethyl)-4-oxo-1,2,3,4-tetrahydrocarbazol-9-yl)methyl)-N-hydroxybenzamide] | 1820 | 41.5 | 43.9
CCCCN1CCN(CC2CCc3c(c4ccccc4n3CCCCCC(=O)NO)C2=O)CC1 (stereo not drawn) [Compound 208, 6-(3-((4-butylpiperazin-1-yl)methyl)-4-oxo-1,2,3,4-tetrahydrocarbazol-9-yl)-N-hydroxyhexanamide] | 284 | 152.8 | 1.9
CN1CCN(CC2C(=O)c3c(n(Cc4ccc(C(=O)NO)cc4)c4ccc(F)cc34)CC2(C)C)CC1 (stereo not drawn) [Compound 209, 4-((6-fluoro-2,2-dimethyl-3-((4-methylpiperazin-1-yl)methyl)-4-oxo-1,2,3,4-tetrahydrocarbazol-9-yl)methyl)-N-hydroxybenzamide] | 365 | 148.8 | 2.5
Cc1c2c(n(Cc3ccc(C(=O)NO)cc3)c1C)CCCC2=O [Compound 220, 4-((2,3-dimethyl-4-oxo-4,5,6,7-tetrahydroindol-1-yl)methyl)-N-hydroxybenzamide] | 2820 | 643.1 | 4.39
O=C(NO)c1ccc(Cn2c3c(c4ccccc42)C(=O)NCC3)cc1 [Compound 228, N-hydroxy-4-((1-oxo-1,2,3,4-tetrahydropyrido[4,3-b]indol-5-yl)methyl)benzamide] | 3530 | 208.3 | 16.9
Cc1cn(Cc2ccc(C(=O)NO)cc2)c2c1C(=O)NCC2 [Compound 232, N-hydroxy-4-((3-methyl-4-oxo-4,5,6,7-tetrahydropyrrolo[3,2-c]pyridin-1-yl)methyl)benzamide] | 4840 | 107.4 | 45
Cc1c2c(n(CCCCCC(=O)NO)c1C)CCCC2=O [Compound 235, 6-(2,3-dimethyl-4-oxo-4,5,6,7-tetrahydroindol-1-yl)-N-hydroxyhexanamide] | 1310 | 34.9 | 37.5
Cc1c2c(n(Cc3ccc(C(=O)NO)cc3)c1C)CC(C)(C)CC2=O [Compound 236, N-hydroxy-4-((2,3,6,6-tetramethyl-4-oxo-4,5,6,7-tetrahydro-1H-indol-1-yl)methyl)benzamide] | 5110 | 479.4 | 10.7
Cc1cn(Cc2ccc(C(=O)NO)cc2)c2c1C(=O)N(CCN1CCOCC1)CC2 [Compound 250, N-hydroxy-4-((3-methyl-5-(2-morpholinoethyl)-4-oxo-4,5,6,7-tetrahydropyrrolo[3,2-c]pyridin-1-yl)methyl)benzamide] | 2720 | 20.5 | 133
